Measured values as given in paper PMC7753147, “High-throughput determination of protein affinities using unmodified peptide libraries in nanomolar scale” (iScience, 2020).

Experiments:
[1] = tested on: FL-geph; experiment: µSPOT peptide microarray binding assay with full-length geph
[2] = tested on: native geph; experiment: µSPOT peptide microarray binding assay with native geph from mouse brain lysate
[3] = tested on: gephE; experiment: µSPOT peptide microarray binding assay with recombinant gephE
[4] = µSPOT peptide microarray, GlyRβ full positional scan, intensity normalised to wild-type sequence DLRSNDFSIVGSLPR (=1)
[5] = µSPOT peptide microarray, GlyRβ full positional scan, native geph from mouse brain lysate, intensity normalised to wild-type sequence DLRSNDFSIVGSLPR (=1)
[6] = µSPOT peptide microarray, GlyRβ full positional scan, recombinant gephE, intensity normalised to wild-type sequence DLRSNDFSIVGSLPR (=1)
[7] = µSPOT full positional scan of GlyRβ 15-mer DLRSNDFSIVGSLPR, intensity normalised to wild-type sequence (= 1)
[8] = µSPOT full positional scan of GlyRβ 15-mer DLRSNDFSIVGSLPR, native geph, intensity normalised to wild-type sequence (= 1)

DLRSNDFPIVGSLPR [GlyRβ_Full_Positional_Scan_145, GlyR β 414-428 variant S421P]
Fl-geph Binding Intensity [norm.] [1, 4]: 0.66 norm.
Native geph Binding Intensity [norm.] [2, 5]: 0.25 norm.
gephE Binding Intensity [norm.] [3, 6]: 0.48 norm.

DLRSNGFSIVGSLPR [GlyRβ_Full_Positional_Scan_102]
Fl-geph Binding Intensity [norm.] [1, 4]: 1.07 norm.
Native geph Binding Intensity [norm.] [2, 5]: 0.65 norm.
gephE Binding Intensity [norm.] [3, 6]: 1 norm.

DLRSNDFSEVGSLPR [GlyRβ_Full_Positional_Scan_171, GlyR β 414-428 variant I422E]
Fl-geph Binding Intensity [norm.] [1, 4]: 0.25 norm.
Native geph Binding Intensity [norm.] [2, 5]: 0.13 norm.
gephE Binding Intensity [norm.] [3, 6]: 0.24 norm.

DLHSNDFSIVGSLPR [GlyRβ_Full_Positional_Scan_053]
Fl-geph Binding Intensity [norm.] [1, 4]: 1.21 norm.
Native geph Binding Intensity [norm.] [2, 5]: 1.37 norm.
gephE Binding Intensity [norm.] [3, 6]: 1.01 norm.

DLRSNDFSIVGSLPW [GlyRβ_Full_Positional_Scan_288]
Fl-geph Binding Intensity [norm.] [1, 7]: 0.84 norm.
Native geph Binding Intensity [norm.] [2, 8]: 0.76 norm.
gephE Binding Intensity [norm.] [3, 7]: 0.89 norm.

DLRSNDFSIVGSSPR [GlyRβ_Full_Positional_Scan_255]
Fl-geph Binding Intensity [norm.] [1, 7]: 1.08 norm.
Native geph Binding Intensity [norm.] [2, 8]: 0.85 norm.
gephE Binding Intensity [norm.] [3, 7]: 0.84 norm.

DLRSNDFSIVGSLKR [GlyRβ_Full_Positional_Scan_274]
Fl-geph Binding Intensity [norm.] [1, 7]: 1.01 norm.
Native geph Binding Intensity [norm.] [2, 8]: 0.21 norm.
gephE Binding Intensity [norm.] [3, 7]: 0.58 norm.

DLRSNYFSIVGSLPR [GlyRβ_Full_Positional_Scan_109]
Fl-geph Binding Intensity [norm.] [1, 4]: 0.7 norm.
Native geph Binding Intensity [norm.] [2, 5]: 0.38 norm.
gephE Binding Intensity [norm.] [3, 6]: 0.82 norm.

DVRSNDFSIVGSLPR [GlyRβ_Full_Positional_Scan_026]
Fl-geph Binding Intensity [norm.] [1, 4]: 1.05 norm.
Native geph Binding Intensity [norm.] [2, 5]: 0.98 norm.
gephE Binding Intensity [norm.] [3, 6]: 1.03 norm.

DLRSNDFSSVGSLPR [GlyRβ_Full_Positional_Scan_175, GlyR β 414-428 variant I422S]
Fl-geph Binding Intensity [norm.] [1, 4]: 0.87 norm.
Native geph Binding Intensity [norm.] [2, 5]: 0.27 norm.
gephE Binding Intensity [norm.] [3, 6]: 0.52 norm.

DLRSNDPSIVGSLPR [GlyRβ_Full_Positional_Scan_125, GlyR β 414-428 variant F420P]
Fl-geph Binding Intensity [norm.] [1, 4]: 0.65 norm.
Native geph Binding Intensity [norm.] [2, 5]: 0.34 norm.
gephE Binding Intensity [norm.] [3, 6]: 0.54 norm.

YLRSNDFSIVGSLPR [GlyRβ_Full_Positional_Scan_009]
Fl-geph Binding Intensity [norm.] [1, 4]: 1 norm.
Native geph Binding Intensity [norm.] [2, 5]: 0.74 norm.
gephE Binding Intensity [norm.] [3, 6]: 1.05 norm.

DLMSNDFSIVGSLPR [GlyRβ_Full_Positional_Scan_058]
Fl-geph Binding Intensity [norm.] [1, 4]: 1.3 norm.
Native geph Binding Intensity [norm.] [2, 5]: 1.59 norm.
gephE Binding Intensity [norm.] [3, 6]: 0.77 norm.

DLGSNDFSIVGSLPR [GlyRβ_Full_Positional_Scan_042]
Fl-geph Binding Intensity [norm.] [1, 4]: 1.02 norm.
Native geph Binding Intensity [norm.] [2, 5]: 1.26 norm.
gephE Binding Intensity [norm.] [3, 6]: 0.93 norm.

DLRSNNFSIVGSLPR [GlyRβ_Full_Positional_Scan_119]
Fl-geph Binding Intensity [norm.] [1, 4]: 0.69 norm.
Native geph Binding Intensity [norm.] [2, 5]: 0.57 norm.
gephE Binding Intensity [norm.] [3, 6]: 0.89 norm.

DLRSNDFSIVSSLPR [GlyRβ_Full_Positional_Scan_215, GlyR β 414-428 variant G424S]
Fl-geph Binding Intensity [norm.] [1, 7]: 0.44 norm.
Native geph Binding Intensity [norm.] [2, 8]: 0.2 norm.
gephE Binding Intensity [norm.] [3, 7]: 0.4 norm.

DLRSNDFSDVGSLPR [GlyRβ_Full_Positional_Scan_170, GlyR β 414-428 variant I422D]
Fl-geph Binding Intensity [norm.] [1, 4]: 0.29 norm.
Native geph Binding Intensity [norm.] [2, 5]: 0.17 norm.
gephE Binding Intensity [norm.] [3, 6]: 0.29 norm.

WLRSNDFSIVGSLPR [GlyRβ_Full_Positional_Scan_008]
Fl-geph Binding Intensity [norm.] [1, 4]: 0.86 norm.
Native geph Binding Intensity [norm.] [2, 5]: 0.67 norm.
gephE Binding Intensity [norm.] [3, 6]: 0.91 norm.

DLRSNDFIIVGSLPR [GlyRβ_Full_Positional_Scan_143, GlyR β 414-428 variant S421I]
Fl-geph Binding Intensity [norm.] [1, 4]: 0.41 norm.
Native geph Binding Intensity [norm.] [2, 5]: 0.18 norm.
gephE Binding Intensity [norm.] [3, 6]: 0.4 norm.

DLRSNEFSIVGSLPR [GlyRβ_Full_Positional_Scan_111]
Fl-geph Binding Intensity [norm.] [1, 4]: 0.94 norm.
Native geph Binding Intensity [norm.] [2, 5]: 0.97 norm.
gephE Binding Intensity [norm.] [3, 6]: 0.96 norm.

DLRSNDFSIVHSLPR [GlyRβ_Full_Positional_Scan_213, GlyR β 414-428 variant G424H]
Fl-geph Binding Intensity [norm.] [1, 7]: 0.5 norm.
Native geph Binding Intensity [norm.] [2, 8]: 0.18 norm.
gephE Binding Intensity [norm.] [3, 7]: 0.47 norm.

DLRSNDFSIVISLPR [GlyRβ_Full_Positional_Scan_203, GlyR β 414-428 variant G424I]
Fl-geph Binding Intensity [norm.] [1, 4]: 0.52 norm.
Native geph Binding Intensity [norm.] [2, 5]: 0.29 norm.
gephE Binding Intensity [norm.] [3, 6]: 0.48 norm.

DLRSNDFSIVGSLYR [GlyRβ_Full_Positional_Scan_269]
Fl-geph Binding Intensity [norm.] [1, 7]: 0.71 norm.
Native geph Binding Intensity [norm.] [2, 8]: 0.59 norm.
gephE Binding Intensity [norm.] [3, 7]: 0.78 norm.

DLRSNDFSIVKSLPR [GlyRβ_Full_Positional_Scan_214, GlyR β 414-428 variant G424K]
Fl-geph Binding Intensity [norm.] [1, 7]: 0.44 norm.
Native geph Binding Intensity [norm.] [2, 8]: 0.17 norm.
gephE Binding Intensity [norm.] [3, 7]: 0.5 norm.

DLSSNDFSIVGSLPR [GlyRβ_Full_Positional_Scan_055]
Fl-geph Binding Intensity [norm.] [1, 4]: 1.4 norm.
Native geph Binding Intensity [norm.] [2, 5]: 1.35 norm.
gephE Binding Intensity [norm.] [3, 6]: 0.87 norm.

RLRSNDFSIVGSLPR [GlyRβ_Full_Positional_Scan_012]
Fl-geph Binding Intensity [norm.] [1, 4]: 0.99 norm.
Native geph Binding Intensity [norm.] [2, 5]: 0.46 norm.
gephE Binding Intensity [norm.] [3, 6]: 0.98 norm.

DIRSNDFSIVGSLPR [GlyRβ_Full_Positional_Scan_023]
Fl-geph Binding Intensity [norm.] [1, 4]: 1.12 norm.
Native geph Binding Intensity [norm.] [2, 5]: 1.16 norm.
gephE Binding Intensity [norm.] [3, 6]: 0.95 norm.

DLRKNDFSIVGSLPR [GlyRβ_Full_Positional_Scan_074]
Fl-geph Binding Intensity [norm.] [1, 4]: 0.94 norm.
Native geph Binding Intensity [norm.] [2, 5]: 1.05 norm.
gephE Binding Intensity [norm.] [3, 6]: 0.92 norm.

DLRSNDFSIMGSLPR [GlyRβ_Full_Positional_Scan_198, GlyR β 414-428 variant V423M]
Fl-geph Binding Intensity [norm.] [1, 4]: 0.86 norm.
Native geph Binding Intensity [norm.] [2, 5]: 0.38 norm.
gephE Binding Intensity [norm.] [3, 6]: 0.44 norm.

DLRSNDFSIVGRLPR [GlyRβ_Full_Positional_Scan_232]
Fl-geph Binding Intensity [norm.] [1, 7]: 1.06 norm.
Native geph Binding Intensity [norm.] [2, 8]: 0.8 norm.
gephE Binding Intensity [norm.] [3, 7]: 0.87 norm.

DLRSNDFLIVGSLPR [GlyRβ_Full_Positional_Scan_144, GlyR β 414-428 variant S421L]
Fl-geph Binding Intensity [norm.] [1, 4]: 0.54 norm.
Native geph Binding Intensity [norm.] [2, 5]: 0.2 norm.
gephE Binding Intensity [norm.] [3, 6]: 0.6 norm.

DLRSNDFWIVGSLPR [GlyRβ_Full_Positional_Scan_148, GlyR β 414-428 variant S421W]
Fl-geph Binding Intensity [norm.] [1, 4]: 0.79 norm.
Native geph Binding Intensity [norm.] [2, 5]: 0.24 norm.
gephE Binding Intensity [norm.] [3, 6]: 0.73 norm.

DLRSNRFSIVGSLPR [GlyRβ_Full_Positional_Scan_112]
Fl-geph Binding Intensity [norm.] [1, 4]: 0.86 norm.
Native geph Binding Intensity [norm.] [2, 5]: 0.36 norm.
gephE Binding Intensity [norm.] [3, 6]: 0.84 norm.

DLRSNDFSIVGSLNR [GlyRβ_Full_Positional_Scan_279]
Fl-geph Binding Intensity [norm.] [1, 7]: 0.77 norm.
Native geph Binding Intensity [norm.] [2, 8]: 0.67 norm.
gephE Binding Intensity [norm.] [3, 7]: 0.71 norm.

DNRSNDFSIVGSLPR [GlyRβ_Full_Positional_Scan_039]
Fl-geph Binding Intensity [norm.] [1, 4]: 0.98 norm.
Native geph Binding Intensity [norm.] [2, 5]: 1.18 norm.
gephE Binding Intensity [norm.] [3, 6]: 0.96 norm.

DLRENDFSIVGSLPR [GlyRβ_Full_Positional_Scan_071]
Fl-geph Binding Intensity [norm.] [1, 4]: 0.97 norm.
Native geph Binding Intensity [norm.] [2, 5]: 1.11 norm.
gephE Binding Intensity [norm.] [3, 6]: 0.93 norm.
